Several values for one entry are separate records, joined by “and”; a condition that tells them apart may be missing. Equal entries are not always repeated. Inconclusive results and toxic doses are left out.
System: BDF1 mice, P388 leukemia ip, median survival T/C
Assay: NCI In Vivo Anticancer Drug Screen. Data for tumor model P388 Leukemia (intraperitoneal) in B6D2F1 (BDF1) mice
Details: endpoint: median survival time, higher = longer survival
Method in brief: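 Mice carrying the transplantable tumour receive compound or vehicle. Survival is followed in each arm, and the treated measure is divided by the vehicle measure.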

[1] = dose: 50.0 mg/kg/injection, schedule: Q01DX009 (ip), vehicle: saline with Tween-80
[2] = dose: 100.0 mg/kg/injection, schedule: Q01DX009 (ip), vehicle: saline with Tween-80
[3] = dose: 100.0 mg/kg/injection, schedule: Q04DX003 (ip), vehicle: Klucel (hydroxypropylcellulose) (HPC)
[4] = dose: 200.0 mg/kg/injection, schedule: Q04DX003 (ip), vehicle: Klucel (hydroxypropylcellulose) (HPC)
[5] = dose: 400.0 mg/kg/injection, schedule: Q04DX003 (ip), vehicle: Klucel (hydroxypropylcellulose) (HPC)
[6] = dose: 12.5 mg/kg/injection, schedule: Q01DX009 (ip), vehicle: saline
[7] = dose: 25.0 mg/kg/injection, schedule: Q01DX009 (ip), vehicle: saline
[8] = dose: 50.0 mg/kg/injection, schedule: Q01DX005 (ip), vehicle: saline
[9] = dose: 200.0 mg/kg/injection, schedule: Q01DX009 (ip), vehicle: saline with Tween-80
[10] = dose: 25.0 mg/kg/injection, schedule: Q04DX003 (ip), vehicle: saline
[11] = dose: 25.0 mg/kg/injection, schedule: Q01DX009 (ip), vehicle: Klucel (hydroxypropylcellulose) (HPC)
[12] = dose: 100.0 mg/kg/injection, schedule: Q01DX009 (ip), vehicle: Klucel (hydroxypropylcellulose) (HPC)
[13] = dose: 200.0 mg/kg/injection, schedule: Q01DX009 (ip), vehicle: Klucel (hydroxypropylcellulose) (HPC)
[14] = dose: 100.0 mg/kg/injection, schedule: Q04DX003 (ip), vehicle: saline with Tween-80
[15] = dose: 6.25 mg/kg/injection, schedule: Q04DX003 (ip), vehicle: saline
[16] = dose: 12.5 mg/kg/injection, schedule: Q04DX003 (ip), vehicle: saline
[17] = dose: 200.0 mg/kg/injection, schedule: Q04DX003 (ip), vehicle: saline with Tween-80
[18] = dose: 400.0 mg/kg/injection, schedule: Q04DX003 (ip), vehicle: saline with Tween-80

SMILES: NC/C(=N\O)c1ccc(C(F)(F)F)cc1
- T/C (dose: 50.0 mg/kg/injection, schedule: Q01DX001 (ip), vehicle: Klucel (hydroxypropylcellulose) (HPC)): 105 % of control
- T/C (dose: 100.0 mg/kg/injection, schedule: Q01DX001 (ip), vehicle: Klucel (hydroxypropylcellulose) (HPC)): 114 % of control
- T/C (dose: 200.0 mg/kg/injection, schedule: Q01DX001 (ip), vehicle: Klucel (hydroxypropylcellulose) (HPC)): 105 % of control

SMILES: COc1cc2c(cc1O)CCCCC2=O
- T/C (dose: 25.0 mg/kg/injection, schedule: Q01DX009 (ip), vehicle: saline with Tween-80): 109 % of control
- T/C [1]: 104 % of control
- T/C [2]: 104 % of control
- T/C [3]: 110 % of control
- T/C [4]: 95 % of control
- T/C [5]: 90 % of control

SMILES: O=NNc1ccccn1
- T/C (dose: 3.12 mg/kg/injection, schedule: Q01DX009 (ip), vehicle: saline): 105 % of control
- T/C [6]: 214 % of control
- T/C [7]: 112 % of control

SMILES: [NH-]C(CCC(N)=O)C(=O)O.[NH-]C(CCCCN)C(=O)O.[Zn+2] (configuration not stated)
- T/C [8]: 106 % of control

SMILES: CC1(C)CC2(C)OC2C2(C1)N=NC(=Nc1ccccc1)O2 (configuration not stated)
- T/C [1]: 117 % of control

SMILES: CCCCCCCCCCC(=O)N1CCOCC1
- T/C (dose: 25.0 mg/kg/injection, schedule: Q04DX003 (ip), vehicle: saline with Tween-80): 100 % of control
- T/C (dose: 50.0 mg/kg/injection, schedule: Q04DX003 (ip), vehicle: saline with Tween-80): 104 % of control

SMILES: Nc1nc(N)c(Cl)c(Nc2cccc(Cl)c2)n1
- T/C [1]: 102 % of control
- T/C [2]: 103 % of control
- T/C [9]: 105 % of control

SMILES: [NH-]C(Cc1ccc(O)cc1)C(=O)O.[NH-]C(Cc1ccc(O)cc1)C(=O)O.[Ni+2] (configuration not stated)
- T/C (dose: 2.0 mg/kg/injection, schedule: Q01DX009 (ip), vehicle: saline): 111 % of control
- T/C (dose: 4.0 mg/kg/injection, schedule: Q01DX009 (ip), vehicle: saline): 107 % of control
- T/C (dose: 8.0 mg/kg/injection, schedule: Q01DX009 (ip), vehicle: saline): 121 % of control
- T/C [10]: 112 % of control
- T/C (dose: 50.0 mg/kg/injection, schedule: Q04DX003 (ip), vehicle: saline): 114 % of control

SMILES: O=C1c2ccccc2C(=O)N1CC[P+](c1ccccc1)(c1ccccc1)c1ccccc1
- T/C (dose: 0.78 mg/kg/injection, schedule: Q01DX009 (ip), vehicle: water): 103 % of control
- T/C (dose: 1.56 mg/kg/injection, schedule: Q04DX003 (ip), vehicle: water): 112 % of control
- T/C (dose: 3.12 mg/kg/injection, schedule: Q04DX003 (ip), vehicle: water): 94 % of control and 123 % of control
- T/C (dose: 3.13 mg/kg/injection, schedule: Q01DX009 (ip), vehicle: Klucel (hydroxypropylcellulose) (HPC)): 165 % of control
- T/C (dose: 6.25 mg/kg/injection, schedule: Q01DX009 (ip), vehicle: Klucel (hydroxypropylcellulose) (HPC)): 151 % of control and 153 % of control
- T/C (dose: 6.25 mg/kg/injection, schedule: Q01DX009 (ip), vehicle: water): 174 % of control
- T/C (dose: 6.25 mg/kg/injection, schedule: Q04DX003 (ip), vehicle: water): 108 % of control and 120 % of control
- T/C (dose: 12.5 mg/kg/injection, schedule: Q01DX009 (ip), vehicle: Klucel (hydroxypropylcellulose) (HPC)): 157 % of control and 160 % of control
- T/C (dose: 12.5 mg/kg/injection, schedule: Q01DX009 (ip), vehicle: water): 158 % of control
- T/C (dose: 12.5 mg/kg/injection, schedule: Q04DX003 (ip), vehicle: water): 119 % of control and 120 % of control
- T/C [11]: 90 % of control
- T/C (dose: 50.0 mg/kg/injection, schedule: Q04DX003 (ip), vehicle: water): 120 % of control

SMILES: CCOC(=O)c1cc(/C=C/c2ccccc2)[nH]c(=O)c1C#N
- T/C [11]: 91 % of control
- T/C (dose: 50.0 mg/kg/injection, schedule: Q01DX009 (ip), vehicle: Klucel (hydroxypropylcellulose) (HPC)): 91 % of control
- T/C [12]: 95 % of control
- T/C [3]: 95 % of control
- T/C [13]: 92 % of control
- T/C [4]: 104 % of control
- T/C [5]: 104 % of control

SMILES: Clc1nn2nnnc2c2ccccc12
- T/C (dose: 10.0 mg/kg/injection, schedule: Q01DX009 (ip), vehicle: saline with Tween-80): 102 % of control
- T/C (dose: 20.0 mg/kg/injection, schedule: Q01DX009 (ip), vehicle: saline with Tween-80): 122 % of control
- T/C (dose: 37.5 mg/kg/injection, schedule: Q01DX009 (ip), vehicle: saline with Tween-80): 91 % of control

SMILES: C=C1C(=O)OC(C)(C)C1(C)C
- T/C [6]: 105 % of control
- T/C [7]: 98 % of control
- T/C (dose: 50.0 mg/kg/injection, schedule: Q01DX009 (ip), vehicle: saline): 86 % of control and 88 % of control

SMILES: c1ccc2c(Nc3ccc(C4=NCCN4)cc3)nnc(Nc3ccc(C4=NCCN4)cc3)c2c1
- T/C (dose: 19.0 mg/kg/injection, schedule: Q04DX003 (ip), vehicle: saline with Tween-80): 119 % of control
- T/C (dose: 29.0 mg/kg/injection, schedule: Q04DX003 (ip), vehicle: saline with Tween-80): 115 % of control
- T/C (dose: 44.0 mg/kg/injection, schedule: Q04DX003 (ip), vehicle: saline with Tween-80): 119 % of control
- T/C (dose: 66.0 mg/kg/injection, schedule: Q04DX003 (ip), vehicle: saline with Tween-80): 154 % of control and 168 % of control
- T/C [14]: 163 % of control
- T/C (dose: 150.0 mg/kg/injection, schedule: Q04DX003 (ip), vehicle: saline with Tween-80): 195 % of control

SMILES: SC1(S)CN2CCC1CC2
- T/C [15]: 105 % of control
- T/C [16]: 105 % of control
- T/C [10]: 105 % of control

SMILES: O=C1c2ccccc2C(=O)C1(Cl)C(Cl)c1ccc([N+](=O)[O-])cc1 (configuration not stated)
- T/C [12]: 105 % of control
- T/C [13]: 90 % of control
- T/C (dose: 400.0 mg/kg/injection, schedule: Q01DX009 (ip), vehicle: Klucel (hydroxypropylcellulose) (HPC)): 100 % of control

SMILES: CN1COC(OC2CSC2)C(C)(C)C1 (configuration not stated)
- T/C [14]: 117 % of control
- T/C [17]: 114 % of control
- T/C [18]: 115 % of control

SMILES: COc1cc(/C=N/NC(=O)c2ccccc2)cc(OC)c1OC
- T/C [2]: 95 % of control
- T/C [14]: 109 % of control
- T/C [9]: 100 % of control
- T/C [17]: 104 % of control
- T/C (dose: 400.0 mg/kg/injection, schedule: Q01DX009 (ip), vehicle: saline with Tween-80): 95 % of control
- T/C [18]: 90 % of control

SMILES: CC(=O)[C@H]1CC[C@H]2[C@@H]3C[C@H](C)C4=CC(=O)CC[C@]4(C)[C@H]3C(=O)C[C@]12C
- T/C [14]: 103 % of control
- T/C [17]: 107 % of control
- T/C [18]: 103 % of control

SMILES: CNC(=S)NNC(=O)C1CC1
- T/C [8]: 94 % of control
- T/C (dose: 100.0 mg/kg/injection, schedule: Q01DX005 (ip), vehicle: saline): 107 % of control
- T/C (dose: 200.0 mg/kg/injection, schedule: Q01DX005 (ip), vehicle: saline): 94 % of control

SMILES: BrCCC[P+](c1ccccc1)(c1ccccc1)c1ccccc1
- T/C (dose: 0.94 mg/kg/injection, schedule: Q01DX010 (ip), vehicle: saline): 95 % of control
- T/C (dose: 1.88 mg/kg/injection, schedule: Q01DX010 (ip), vehicle: saline): 104 % of control
- T/C (dose: 1.9 mg/kg/injection, schedule: Q01DX009 (ip), vehicle: saline): 105 % of control
- T/C (dose: 3.13 mg/kg/injection, schedule: Q04DX003 (ip), vehicle: saline): 92 % of control
- T/C (dose: 3.75 mg/kg/injection, schedule: Q01DX009 (ip), vehicle: saline): 122 % of control
- T/C (dose: 3.75 mg/kg/injection, schedule: Q01DX010 (ip), vehicle: saline): 114 % of control
- T/C [15]: 92 % of control
- T/C (dose: 7.5 mg/kg/injection, schedule: Q01DX009 (ip), vehicle: saline): 111 % of control
- T/C (dose: 7.5 mg/kg/injection, schedule: Q01DX010 (ip), vehicle: saline): 123 % of control
- T/C (dose: 12.5 mg/kg/injection, schedule: Q01DX009 (ip), vehicle: saline with Tween-80): 150 % of control
- T/C [16]: 103 % of control
- T/C (dose: 15.0 mg/kg/injection, schedule: Q01DX009 (ip), vehicle: saline): 194 % of control
- T/C (dose: 15.0 mg/kg/injection, schedule: Q01DX010 (ip), vehicle: saline): 118 % of control

SMILES: O=C(O)CNC(=O)/C(=C\c1[nH]c(=O)[nH]c(=O)c1Br)NC(=O)c1ccccc1
- T/C [14]: 90 % of control
- T/C [17]: 104 % of control
- T/C [18]: 100 % of control
